# Calls of active or inactive are those of the source. Cut-off read from the data, not from the text of the source, for most assays here: actives have a measured EC50 and inactives only a lower limit.
# Assays:
# [1] = molecular target: T1, High affinity choline transporter 1 (Homo sapiens, UniProt Q9GZV3); assay: CHT inhibitors, dose response, cell-based, 5-point CRC, membrane potential dye (AID 504840); format: functional
# T1 sequence (Q9GZV3 whole entry): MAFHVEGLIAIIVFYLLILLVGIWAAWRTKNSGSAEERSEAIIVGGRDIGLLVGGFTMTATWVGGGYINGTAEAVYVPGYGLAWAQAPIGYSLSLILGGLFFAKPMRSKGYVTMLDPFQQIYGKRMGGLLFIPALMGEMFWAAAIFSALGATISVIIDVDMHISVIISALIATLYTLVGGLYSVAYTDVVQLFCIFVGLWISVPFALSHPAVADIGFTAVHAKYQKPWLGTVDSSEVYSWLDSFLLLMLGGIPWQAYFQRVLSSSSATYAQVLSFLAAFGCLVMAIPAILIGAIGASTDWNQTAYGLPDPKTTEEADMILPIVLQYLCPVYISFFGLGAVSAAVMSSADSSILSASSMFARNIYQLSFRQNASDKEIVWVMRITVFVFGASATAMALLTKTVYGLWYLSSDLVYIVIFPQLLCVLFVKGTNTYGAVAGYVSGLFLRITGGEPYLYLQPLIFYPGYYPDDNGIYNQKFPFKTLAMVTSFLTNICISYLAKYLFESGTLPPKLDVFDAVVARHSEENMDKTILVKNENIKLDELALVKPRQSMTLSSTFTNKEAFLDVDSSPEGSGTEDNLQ
# [2] = Luminescence Cell-Based Dose Confirmation HTS to Identify Activators of 5'UTR Stem-Loop Driven Alpha-Synuclein mRNA Translation in H4 Neuroglioblastoma Cells. [Related pubchem assays: 1829 (Project Summary), 1814 (Primary HTS)]; format: functional
# [3] = Luminescence Cell-Based Dose Response HTS to Identify Activators of Luciferase Translation or Activity in H4 […] Cells. [Related pubchem assays: 1829 (Project Summary), 1814 (Primary HTS)]; format: functional
# [4] = system: H4; assay: Luminescence Cell-Based Dose Response HTS to Identify Activators of 5'UTR Stem-Loop Driven Prion Protein mRNA Translation in H4 Neuroglioblastoma Cells. [Related pubchem assays: 1829 (Project Summary), 1814 (Primary HTS)]; format: functional; conditions: Homo sapiens
# [5] = cells; format: functional, cell-based
# [6] = cells; format: functional, cell-based; remark: listed apart in the source
# [7] = molecular target: T2, Fatty acid synthase (Homo sapiens, UniProt P49327); assay: FAS thioesterase domain inhibitors, dose response, biochemical, endpoint fluorescence intensity, uHTS hits (AID 624327); format: functional;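 note: fluorescence from hydrolysis of an O-methyl fluorescein acyl ester substrate by the enzyme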
# [8] = molecular target: T2, Fatty acid synthase; assay: FAS thioesterase domain inhibitors, dose response, biochemical, kinetic fluorescence intensity (AID 624326); format: functional;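 note: rate of fluorescence rise from hydrolysis of a fluorogenic O-methyl fluorescein ester substrate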
# [9] = molecular target: T3, Carboxy-terminal domain RNA polymerase II polypeptide A small phosphatase 1 (Homo sapiens, UniProt Q9GZU7); assay: inhibitors of CTDSP1, concentration-response testing, biochemical assay, absorbance-based, actives from ultra-high-throughput screening (AID 540297); format: functional
# T3 sequence (Q9GZU7 whole entry): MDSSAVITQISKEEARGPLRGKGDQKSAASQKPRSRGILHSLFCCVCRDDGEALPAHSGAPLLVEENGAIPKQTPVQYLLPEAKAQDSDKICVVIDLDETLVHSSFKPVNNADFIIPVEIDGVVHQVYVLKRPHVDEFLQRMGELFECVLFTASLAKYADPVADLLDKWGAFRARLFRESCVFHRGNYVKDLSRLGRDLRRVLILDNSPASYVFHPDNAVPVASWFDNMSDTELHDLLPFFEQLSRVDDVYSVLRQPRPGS
# [10] = molecular target: T4, Heat shock factor protein 1 (Mus musculus, UniProt P38532); assay: inhibition of MG132-induced HSE-luciferase signal, confirmation, cell-based, NIH3T3, luminescence, dose retest (AID 2382); format: functional;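 note: NIH3T3 fibroblasts with HSF1-driven luciferase reporter stressed by proteasome inhibitor MG132; luminescence from HSF1-driven luciferase expression after 8 hours of MG132 stress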
# T4 sequence (P38532 whole entry): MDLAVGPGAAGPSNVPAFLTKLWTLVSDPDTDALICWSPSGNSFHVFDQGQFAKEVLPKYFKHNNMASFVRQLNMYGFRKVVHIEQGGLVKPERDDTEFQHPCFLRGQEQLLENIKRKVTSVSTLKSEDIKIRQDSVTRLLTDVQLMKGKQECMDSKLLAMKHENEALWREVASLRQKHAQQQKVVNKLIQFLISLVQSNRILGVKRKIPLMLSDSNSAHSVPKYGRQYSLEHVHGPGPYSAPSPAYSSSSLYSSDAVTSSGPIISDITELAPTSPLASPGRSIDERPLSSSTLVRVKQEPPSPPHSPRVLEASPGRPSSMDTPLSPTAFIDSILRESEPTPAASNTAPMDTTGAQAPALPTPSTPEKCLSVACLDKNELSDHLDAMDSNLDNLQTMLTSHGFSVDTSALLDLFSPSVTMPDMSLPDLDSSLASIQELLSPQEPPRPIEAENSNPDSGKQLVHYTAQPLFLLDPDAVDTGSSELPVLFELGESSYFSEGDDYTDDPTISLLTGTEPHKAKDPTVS
# [11] = system: H9c2; assay: cells; format: functional, cell-based; conditions: Rattus norvegicus, H9c2, Myocardium;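 note: confirmatory concentration-response retest of ultra-high-throughput screening hits for modulation of myocardial damage; cell death induced by hydrogen peroxide oxidative stress; compound pretreatment for 60 min then peroxide exposure for 2 h; potency is for protecting the cells against peroxide damage rather than for killing them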
# [12] = cells; format: functional
# [13] = THP-1 cell cytotoxicity, dose response, cytotoxicity control for non-replicating M. tuberculosis project (AID 489025); format: functional
# [14] = cytotoxicity in OVCAR8 ovarian cancer cells, dose response, PAX8 project, cell-based, plate reader, dry powder samples (AID 743197); format: functional; conditions: OVCAR-8
# [15] = molecular target: Paired box protein Pax-8 (Homo sapiens, UniProt Q06710); assay: inhibitors of PAX8-driven TPO luciferase reporter, dose response, RMG-I cells, cherry-pick (AID 687027); format: functional, cell-based;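 note: luciferase reporter driven by Pax8 target thyroperoxidase promoter measured by SteadyGlo luminescence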
# [16] = inhibitors of intracellular T. cruzi replication, confirmation, NIH3T3 host cells, beta-gal luminescence (AID 2044); format: functional, cell-based;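 note: intracellular parasites grown in NIH/3T3 mouse fibroblasts as host cells; luminescent beta-galactosidase reporter signal from transgenic T. cruzi replicating inside host cells; inhibitors lower the luminescence signal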
# [17] = cytotoxicity toward NIH3T3 fibroblasts, dose response, counter-screen, cell-based, ATP luminescence, mouse fibroblasts (AID 2010); format: functional;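 note: cells exposed to compound for about 90 hours before reading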
# [18] = system: Streptococcus; assay: Group A Streptococcus viability loss, dose response, counter-screen for streptokinase expression inhibitor project, luminescence, BacTiterGlo (AID 1915); format: functional, organism-based;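 note: potency for reduction of bacterial viability or growth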
# [19] = system: Streptococcus sp. 'group A'; assay: growth inhibition of control SK(-) GAS strain, dose response, counter-screen for streptokinase expression inhibitor project, luminescence, kanamycin, BacTiterGlo, confirmation (AID 1900); format: functional, organism-based
# [20] = molecular target: T5, Streptokinase A (Streptococcus pyogenes serotype M1, UniProt P10520); assay: S. pyogenes streptokinase expression inhibitors, potency, dose response, plasminogen activation absorbance, OD405 (AID 1914); format: functional, Streptococcus pyogenes M1 GAS;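 note: secreted streptokinase activity via plasminogen activation per viability signal from cell pellet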
# T5 sequence (P10520 whole entry): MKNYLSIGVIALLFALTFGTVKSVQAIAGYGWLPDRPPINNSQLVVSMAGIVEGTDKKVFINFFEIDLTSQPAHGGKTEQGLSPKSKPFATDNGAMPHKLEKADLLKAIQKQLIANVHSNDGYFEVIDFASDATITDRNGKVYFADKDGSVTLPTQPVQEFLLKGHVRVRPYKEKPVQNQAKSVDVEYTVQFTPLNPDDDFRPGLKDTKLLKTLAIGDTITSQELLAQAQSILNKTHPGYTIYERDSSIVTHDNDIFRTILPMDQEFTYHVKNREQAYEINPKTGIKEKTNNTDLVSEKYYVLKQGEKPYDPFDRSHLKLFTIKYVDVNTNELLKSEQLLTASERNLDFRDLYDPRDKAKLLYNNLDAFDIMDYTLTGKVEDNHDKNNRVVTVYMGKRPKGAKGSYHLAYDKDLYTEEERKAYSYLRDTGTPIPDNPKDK
# T2 sequence (P49327 whole entry, the tested form may be a part): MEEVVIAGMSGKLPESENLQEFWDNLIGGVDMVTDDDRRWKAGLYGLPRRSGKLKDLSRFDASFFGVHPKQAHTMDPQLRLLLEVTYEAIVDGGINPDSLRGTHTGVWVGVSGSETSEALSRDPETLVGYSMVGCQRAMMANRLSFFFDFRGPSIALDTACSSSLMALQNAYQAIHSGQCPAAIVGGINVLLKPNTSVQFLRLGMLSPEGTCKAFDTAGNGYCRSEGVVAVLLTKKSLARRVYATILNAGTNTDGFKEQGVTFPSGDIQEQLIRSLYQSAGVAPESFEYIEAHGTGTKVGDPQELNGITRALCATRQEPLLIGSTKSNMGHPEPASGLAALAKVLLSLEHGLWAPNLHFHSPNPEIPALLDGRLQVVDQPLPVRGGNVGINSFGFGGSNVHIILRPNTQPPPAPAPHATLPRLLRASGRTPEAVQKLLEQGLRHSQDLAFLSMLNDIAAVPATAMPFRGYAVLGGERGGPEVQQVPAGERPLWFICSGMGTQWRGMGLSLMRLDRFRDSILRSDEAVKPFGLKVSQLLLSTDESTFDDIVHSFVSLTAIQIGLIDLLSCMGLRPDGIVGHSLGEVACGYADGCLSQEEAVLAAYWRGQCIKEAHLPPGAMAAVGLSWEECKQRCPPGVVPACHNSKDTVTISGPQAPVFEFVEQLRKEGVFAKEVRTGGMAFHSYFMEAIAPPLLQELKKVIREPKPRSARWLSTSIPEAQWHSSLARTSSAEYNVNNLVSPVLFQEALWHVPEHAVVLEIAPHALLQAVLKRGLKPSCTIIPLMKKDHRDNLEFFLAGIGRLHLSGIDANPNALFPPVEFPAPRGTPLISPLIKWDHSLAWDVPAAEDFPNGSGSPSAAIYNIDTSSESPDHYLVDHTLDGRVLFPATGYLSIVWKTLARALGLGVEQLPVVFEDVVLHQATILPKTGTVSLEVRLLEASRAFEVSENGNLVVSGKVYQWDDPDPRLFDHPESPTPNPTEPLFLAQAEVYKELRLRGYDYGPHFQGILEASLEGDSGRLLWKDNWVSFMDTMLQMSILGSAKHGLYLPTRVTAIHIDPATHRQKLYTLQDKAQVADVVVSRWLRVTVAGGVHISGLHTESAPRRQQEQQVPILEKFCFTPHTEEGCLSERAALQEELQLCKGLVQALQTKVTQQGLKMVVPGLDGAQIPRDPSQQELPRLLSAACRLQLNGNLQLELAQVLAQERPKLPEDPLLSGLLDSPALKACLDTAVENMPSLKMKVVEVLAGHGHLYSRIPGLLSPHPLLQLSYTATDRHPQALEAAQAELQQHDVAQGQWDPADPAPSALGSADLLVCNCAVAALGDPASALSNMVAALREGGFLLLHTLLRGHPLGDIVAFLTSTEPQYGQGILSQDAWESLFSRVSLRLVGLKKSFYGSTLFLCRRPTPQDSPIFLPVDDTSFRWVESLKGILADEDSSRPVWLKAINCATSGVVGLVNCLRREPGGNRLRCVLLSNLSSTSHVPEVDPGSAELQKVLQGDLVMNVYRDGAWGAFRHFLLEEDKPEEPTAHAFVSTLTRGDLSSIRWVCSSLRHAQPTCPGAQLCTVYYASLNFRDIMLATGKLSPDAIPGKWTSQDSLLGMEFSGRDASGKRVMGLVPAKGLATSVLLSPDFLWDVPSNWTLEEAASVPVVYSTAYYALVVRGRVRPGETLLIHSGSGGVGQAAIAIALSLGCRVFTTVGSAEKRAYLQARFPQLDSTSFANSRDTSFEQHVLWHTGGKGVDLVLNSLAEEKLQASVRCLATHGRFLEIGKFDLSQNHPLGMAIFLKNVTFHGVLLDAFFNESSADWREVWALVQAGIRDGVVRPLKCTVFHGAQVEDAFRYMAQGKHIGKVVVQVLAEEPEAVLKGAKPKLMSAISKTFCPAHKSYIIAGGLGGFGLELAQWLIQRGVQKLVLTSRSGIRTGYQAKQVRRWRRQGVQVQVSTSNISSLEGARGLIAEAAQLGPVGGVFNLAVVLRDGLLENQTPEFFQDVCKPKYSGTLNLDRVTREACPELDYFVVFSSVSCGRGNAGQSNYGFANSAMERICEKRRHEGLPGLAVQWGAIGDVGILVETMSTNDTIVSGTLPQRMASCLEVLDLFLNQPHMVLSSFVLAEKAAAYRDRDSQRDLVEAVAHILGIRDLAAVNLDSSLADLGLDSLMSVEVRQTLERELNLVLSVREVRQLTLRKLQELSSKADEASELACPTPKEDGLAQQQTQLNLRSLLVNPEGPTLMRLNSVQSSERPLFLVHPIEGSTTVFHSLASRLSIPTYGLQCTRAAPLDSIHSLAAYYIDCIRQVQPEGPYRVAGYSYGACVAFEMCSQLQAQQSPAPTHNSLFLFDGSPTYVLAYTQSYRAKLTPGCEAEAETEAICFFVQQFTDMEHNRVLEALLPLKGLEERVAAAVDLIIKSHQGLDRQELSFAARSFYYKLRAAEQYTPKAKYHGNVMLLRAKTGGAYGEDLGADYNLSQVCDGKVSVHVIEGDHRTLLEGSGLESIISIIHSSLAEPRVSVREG
# Chain of Paired box protein Pax-8 (Q06710 whole entry): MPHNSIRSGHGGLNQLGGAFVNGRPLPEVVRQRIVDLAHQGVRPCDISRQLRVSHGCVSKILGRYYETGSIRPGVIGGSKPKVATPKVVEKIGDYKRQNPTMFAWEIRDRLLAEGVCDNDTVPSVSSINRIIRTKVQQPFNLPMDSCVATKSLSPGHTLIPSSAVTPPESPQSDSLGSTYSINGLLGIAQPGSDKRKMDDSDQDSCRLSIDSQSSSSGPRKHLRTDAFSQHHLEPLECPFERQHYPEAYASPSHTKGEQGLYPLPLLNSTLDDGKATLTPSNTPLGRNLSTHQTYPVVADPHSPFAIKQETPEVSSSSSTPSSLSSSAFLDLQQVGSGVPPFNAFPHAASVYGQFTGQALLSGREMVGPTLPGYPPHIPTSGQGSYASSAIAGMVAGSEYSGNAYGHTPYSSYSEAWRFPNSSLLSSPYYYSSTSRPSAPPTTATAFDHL
structure (smiles),measurement,setting,value
CCC(Oc1ccc2c(c1)C(=O)CC(C)(C)O2)C(=O)NCCN1CCCCCC1 (centres undefined),IC50,[1],15.8 µM (active)
Clc1cccc(Cl)c1Cn1nnc(N2CCCC2)n1,EC50,[2],12 µM (active)
same,EC50,[3],13.8 µM (active)
same,EC50,[4],20.3 µM (active)
OCCC#Cc1ccc(CN2CCN(Cc3ccccc3)C(CCO)C2)cc1 (centres undefined),EC50,[5],> 350 µM (not active)
same,EC50,[6],> 350 µM (not active)
O=C(O)/C=C\C(=O)Nc1ccccc1C#Cc1ccc(Br)cc1,EC50,[2],114 µM (active)
same,EC50,[3],19.7 µM (active)
same,EC50,[4],7.95 µM (active)
O=C(COC(=O)c1cc([N+](=O)[O-])ccc1N1CCOCC1)Nc1cccc(F)c1,IC50,[7],1.1 µM (active)
same,IC50,[8],0.917 µM (active)
Cc1c(CCC(=O)O)c(=O)oc2cc(OCc3ccccc3Br)ccc12,IC50,[9],10.6 µM (active)
CC1(C)Cc2c(C#N)c(SCCC#N)nc(N3CCOCC3)c2CO1,EC50,[10],> 195 µM (not active)
same,EC50,[5],> 350 µM (not active)
same,EC50,[6],> 350 µM (not active)
Cc1cc(C)c(C#N)c(SC[S+]([O-])Cc2ccc(Cl)cc2)n1 (centres undefined),IC50,[7],5.88 µM (active)
same,IC50,[8],5.54 µM (active)
Cc1ccc(-c2csc(C3=C(N)N(NC(=O)c4ccco4)CC3=O)n2)cc1,IC50,[9],12.9 µM (active)
CC(NC(=O)c1cccc(OC2CCN(C(=O)C3CC3)CC2)c1)c1ccc(F)cc1 (centres undefined),IC50,[1],17.4 µM (active)
CCN(CC)CCCn1c2c(c(SCC(=O)N3CCc4ccccc43)nc1=O)CCC2,IC50,[1],10.9 µM (active)
Cc1ccc(C(=O)N/N=C\c2ccc(-c3ccc(Cl)cc3)o2)cn1,IC50,[11],> 79 µM (inactive)
same,IC50,[12],> 50 µM (active)
same,CC50,[13],30 µM (active)
CN1c2ccc(C3=CCCCC3)cc2[C@H]2[C@H](CCN2C(=O)NC2CCCCC2)[C@@H]1CO,AC50,[14],> 70 µM (inactive)
same,AC50,[15],12.3 µM (active)
C[C@@H]1CN([C@@H](C)CO)C(=O)c2c(c3ccccc3n2C)-c2ccccc2CO[C@H]1CN(C)S(=O)(=O)c1cccc(F)c1,AC50,[14],46.4 µM (active)
same,AC50,[15],13.7 µM (active)
N#Cc1c(/N=C/c2cc(Br)cs2)sc2c1CCC2,EC50,[2],> 120 µM (not active)
same,EC50,[3],33.6 µM (active)
same,EC50,[4],11.2 µM (active)
O/N=C1/C2C3CC4C5C3C1C5C1(OCCO1)C42 (centres undefined),EC50,[5],> 350 µM (not active)
same,EC50,[6],> 350 µM (not active)
CN(/N=C/c1ccc([N+](=O)[O-])o1)c1ccccc1,EC50,[16],0.665 µM (active)
same,IC50,[1],12.9 µM (active)
same,EC50,[17],> 60 µM (not active)
C/C(=N\NC(=O)c1cc(Br)ccc1O)c1cccc(NC(=O)c2ccccc2F)c1,EC50,[18],74 µM (active)
same,IC50,[9],2.94 µM (active)
same,EC50,[19],3.04 µM (active)
same,EC50,[20],> 150 µM (not active)

# Source: ChEMBL document CHEMBL1201862, “PubChem BioAssay data set” (2004)
